Assay results taken from ChEMBL document CHEMBL1201862, “PubChem BioAssay data set” (2004).
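All cell lines were grown in 96-well plates and treated with compound for 48 hours. GI50: concentration for 50% inhibition of growth.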 Calls of active or inactive are those of the source. Cut-off read from the data, not from the text of the source: active = GI50 up to about 1.1 µM and inactive = higher.

Legend:
Test in all cases: inhibition of tumour cell growth, NCI panel, 48 h
[1] = system: K562
[2] = system: CAKI-1
[3] = system: A498
[4] = system: ACHN
[5] = system: SK-MEL-5
[6] = system: HCT-116
[7] = system: HCT-15
[8] = system: CCRF-CEM
[9] = system: RXF 393
[10] = system: SF-539
[11] = system: LOX IMVI
[12] = system: OVCAR-8
[13] = system: UACC-62
[14] = system: UACC-257
[15] = system: NCI/ADR-RES
[16] = system: MDA-MB-435
[17] = system: MCF7
[18] = system: MDA-MB-231
[19] = system: PC-3

## Nc1nc2c(nnn2C2C=C(CO)C(O)C2O)c(=O)[nH]1 (configuration not stated)
[1]
  GI50: > 100 µM (inactive)
[2]
  GI50: 57.7 µM (inactive)
[3]
  GI50: > 100 µM (inactive)
[4]
  GI50: > 100 µM (inactive)
[5]
  GI50: > 100 µM (inactive)
[6]
  GI50: > 100 µM (inactive)
[7]
  GI50: > 100 µM
[8]
  GI50: > 100 µM (inactive)
[9]
  GI50: 78 µM (inactive)
[10]
  GI50: > 100 µM (inactive)
[11]
  GI50: 27.9 µM (inactive)
[12]
  GI50: > 100 µM (inactive)
[13]
  GI50: 58.6 µM (inactive)
[14]
  GI50: > 100 µM (inactive)

## CCc1cccc(CC)c1NC(=O)/C(Cl)=C(/Cl)C(=O)O
[1]
  GI50: 11.6 µM (inactive)
[2]
  GI50: 16.8 µM (inactive)
[3]
  GI50: > 100 µM (inactive)
[4]
  GI50: 26.9 µM (inactive)
[5]
  GI50: 36.7 µM (inactive)
[6]
  GI50: 25 µM (inactive)
[7]
  GI50: 19.4 µM
[8]
  GI50: 6.44 µM (inactive)
[9]
  GI50: 28.9 µM (inactive)
[10]
  GI50: 33 µM (inactive)
[11]
  GI50: > 100 µM (inactive)
[12]
  GI50: 18.4 µM (inactive)
[13]
  GI50: 37.4 µM (inactive)
[14]
  GI50: 24.1 µM (inactive)

## Oc1ncnc2c1CCCN2
[1]
  GI50: > 100 µM (inactive)
[2]
  GI50: > 100 µM (inactive)
[4]
  GI50: > 100 µM (inactive)
[5]
  GI50: > 100 µM (inactive)
[6]
  GI50: > 100 µM (inactive)
[7]
  GI50: > 100 µM
[8]
  GI50: > 100 µM (inactive)
[9]
  GI50: > 100 µM (inactive)
[11]
  GI50: > 100 µM (inactive)
[12]
  GI50: > 100 µM (inactive)
[13]
  GI50: > 100 µM (inactive)
[14]
  GI50: > 100 µM (inactive)

## CC(C)(Oc1ccc2c(=O)cc(-c3ccccc3)oc2c1)C(=O)Nc1c(Cl)cccc1Cl
[1]
  GI50: 12.1 µM (inactive)
[2]
  GI50: > 100 µM (inactive)
[3]
  GI50: > 100 µM (inactive)
[5]
  GI50: 26.5 µM (inactive)
[6]
  GI50: 59.2 µM (inactive)
[7]
  GI50: 76.7 µM
[8]
  GI50: 57.7 µM (inactive)
[9]
  GI50: < 0.01 µM (active)
[10]
  GI50: > 100 µM (inactive)
[11]
  GI50: > 100 µM (inactive)
[12]
  GI50: 29.4 µM (inactive)
[13]
  GI50: > 100 µM (inactive)
[14]
  GI50: > 100 µM (inactive)

## COc1ccc(CCN2CCOCC2)cc1
[1]
  GI50: > 100 µM (inactive)
[2]
  GI50: > 100 µM (inactive)
[15]
  GI50: > 100 µM (inactive)
[3]
  GI50: > 100 µM (inactive)
[4]
  GI50: > 100 µM (inactive)
[5]
  GI50: > 100 µM (inactive)
[6]
  GI50: > 100 µM (inactive)
[16]
  GI50: > 100 µM (inactive)
[7]
  GI50: > 100 µM
[8]
  GI50: > 100 µM (inactive)
[9]
  GI50: > 100 µM (inactive)
[10]
  GI50: > 100 µM (inactive)
[17]
  GI50: > 100 µM (inactive)
[11]
  GI50: > 100 µM (inactive)
[18]
  GI50: > 100 µM (inactive)
[13]
  GI50: > 100 µM (inactive)
[19]
  GI50: > 100 µM (inactive)
[14]
  GI50: > 100 µM (inactive)

## CC1=C(C(=O)Nc2ccc([N+](=O)[O-])cc2)C(c2ccc(N(C)C)cc2)C(C(=O)Nc2ccc([N+](=O)[O-])cc2)=C(C)N1
[1]
  GI50: 6.68 µM (inactive)
[2]
  GI50: 31.8 µM (inactive)
[3]
  GI50: 20.7 µM (inactive)
[4]
  GI50: 0.0475 µM (active)
[5]
  GI50: 15 µM (inactive)
[8]
  GI50: 17.8 µM (inactive)
[9]
  GI50: 12.1 µM (inactive)
[10]
  GI50: 23 µM (inactive)
[11]
  GI50: 9.04 µM (inactive)
[12]
  GI50: 26.6 µM (inactive)
[14]
  GI50: 16.4 µM (inactive)

## Cc1ccc(Nc2ccc(Nc3ccc(C)cc3)c3c2C(=O)c2c(O)ccc(O)c2C3=O)cc1
[1]
  GI50: > 100 µM (inactive)
[2]
  GI50: > 100 µM (inactive)
[3]
  GI50: > 100 µM (inactive)
[4]
  GI50: > 100 µM (inactive)
[5]
  GI50: > 100 µM (inactive)
[6]
  GI50: > 100 µM (inactive)
[7]
  GI50: > 100 µM
[8]
  GI50: 67.6 µM (inactive)
[9]
  GI50: > 100 µM (inactive)
[10]
  GI50: 66.2 µM (inactive)
[11]
  GI50: > 100 µM (inactive)
[12]
  GI50: > 100 µM (inactive)
[13]
  GI50: > 100 µM (inactive)
[14]
  GI50: > 100 µM (inactive)

## O=C(C=P(c1ccccc1)(c1ccccc1)c1ccccc1)c1ccc(-c2ccc(F)cc2F)cc1
[1]
  GI50: 2.18 µM (inactive)
[2]
  GI50: 2.12 µM (inactive)
[15]
  GI50: 3.09 µM (inactive)
[3]
  GI50: 2.64 µM (inactive)
[4]
  GI50: 2.44 µM (inactive)
[5]
  GI50: 1.84 µM (inactive)
[6]
  GI50: 2.87 µM (inactive)
[16]
  GI50: 2.28 µM (inactive)
[7]
  GI50: 2.29 µM
[8]
  GI50: 2.61 µM (inactive)
[9]
  GI50: 2.64 µM (inactive)
[10]
  GI50: 2.88 µM (inactive)
[17]
  GI50: 2.55 µM (inactive)
[11]
  GI50: 2 µM (inactive)
[18]
  GI50: 2.1 µM (inactive)
[13]
  GI50: 1.85 µM (inactive)
[19]
  GI50: 3.38 µM (inactive)
[14]
  GI50: 2.72 µM (inactive)

## Nc1ccc(S2(c3ccc(N)cc3)C=C(c3ccccc3)C(c3ccccc3)=C2)cc1
[1]
  GI50: > 46.9 µM (inactive)
[15]
  GI50: > 35.1 µM (inactive)
[3]
  GI50: > 29.4 µM (inactive)
[4]
  GI50: > 28.6 µM (inactive)
[5]
  GI50: > 100 µM (inactive)
[6]
  GI50: > 36 µM (inactive)
[16]
  GI50: > 35.9 µM (inactive)
[7]
  GI50: > 54.2 µM
[8]
  GI50: > 100 µM (inactive)
[9]
  GI50: > 26.9 µM (inactive)
[10]
  GI50: > 25.5 µM (inactive)
[17]
  GI50: > 32.1 µM (inactive)
[11]
  GI50: > 33.5 µM (inactive)
[12]
  GI50: > 26.4 µM (inactive)
[18]
  GI50: > 24.2 µM (inactive)
[13]
  GI50: > 35.6 µM (inactive)
[19]
  GI50: > 25.2 µM (inactive)
[14]
  GI50: > 54.5 µM (inactive)
